Molecular target: T1, L. helveticus PDT (Lactobacillus helveticus, UniProt Q8RLY5)
T1 construct: gene ptd; recombinant in E. coli BL21(DE3)pLysS from pETLH4; ammonium sulfate and Sephacryl S-200, no tag mentioned; C-terminal residue Tyr167; active site shared with adjacent monomer; 3 monomers per ASU
Test: X-ray crystallography, […] Å, soaked crystals
Assay type: binding
Settings: soak up to 6 mM; active site, four overlapping orientations; also deoxyribosylated at N1 and N7 with dGuo donor

T1 sequence (Q8RLY5 entry or part of it): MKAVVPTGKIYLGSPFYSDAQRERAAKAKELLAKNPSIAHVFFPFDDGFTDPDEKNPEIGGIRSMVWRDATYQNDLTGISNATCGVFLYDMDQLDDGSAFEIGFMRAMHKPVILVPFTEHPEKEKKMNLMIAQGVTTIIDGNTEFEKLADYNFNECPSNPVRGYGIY

Structure (SMILES): O=c1[nH]c2nccn2c2nc[nH]c12 [compound 1, 8,9-dihydro-9-oxoimidazo[2,1-b]purine]
- X-ray crystallography, 2.1 Å, soaked crystals: the substrate binds in at least four different, overlapping orientations
